Assay results from ChEMBL document CHEMBL1129048, “A novel, picomolar inhibitor of human immunodeficiency virus type 1 protease” (J Med Chem, 1996).

Legend:
MT4 = experiment: In vitro effective concentration against MT-4 cell line; format: functional, cell-based; conditions: Homo sapiens
[1] = biological target: Human immunodeficiency virus type 1 protease (Human immunodeficiency virus 1, UniProt Q72874); experiment: Inhibitory activity against HIV-1 Protease

SMILES	EC50 (MT4) [nM]	Ki [1] [nM]
COc1cccc(CN2C(=O)N(Cc3cccc(OC)c3)N(Cc3ccccc3)C[C@@H](O)[C@H]2Cc2ccccc2)c1	930	0.22
O=C1N(Cc2ccc(O)cc2)[C@H](Cc2ccccc2)[C@H](O)CN(Cc2ccccc2)N1Cc1ccc(O)cc1	10	0.07
O=C1N(Cc2ccc(CO)cc2)[C@H](Cc2ccccc2)[C@H](O)CN(Cc2ccccc2)N1Cc1ccc(CO)cc1	90	0.22
O=C1N(Cc2ccc(CO)cc2)[C@H](Cc2ccccc2)[C@H](O)CN(Cc2ccoc2)N1Cc1ccc(CO)cc1	100	0.49
COc1cc(CN2C(=O)N(CC3CC3)N(Cc3ccccc3)C[C@@H](O)[C@H]2Cc2ccccc2)ccc1O	170	0.062
COc1cc(CN2C(=O)N(Cc3ccc(O)c(OC)c3)N(Cc3ccccc3)C[C@@H](O)[C@H]2Cc2ccccc2)ccc1O	2	
O=C1N(Cc2ccccc2)[C@H](Cc2ccccc2)[C@H](O)CN(Cc2ccccc2)N1Cc1ccccc1	2860	2
O=C1N(Cc2ccc(CO)cc2)[C@H](Cc2ccccc2)[C@H](O)[C@@H](O)[C@@H](Cc2ccccc2)N1Cc1ccc(CO)cc1 [DMP-323]	30	0.23
